Data taken from ChEMBL document CHEMBL3991601, “The target landscape of clinical kinase drugs” (Science, 2017).
Active and inactive are the calls of the source. Cut-off read from the data, not from the text of the source, for most assays here: actives have a measured Kd and inactives only a lower limit.

Columns and labels:
[1] = biological target: Adenylate kinase 2, mitochondrial (Homo sapiens, UniProt P54819)
Ephrin type-A receptor 2 = Ephrin type-A receptor 2 (Homo sapiens, UniProt P29317)
[2] = biological target: Tyrosine-protein kinase Fer (Homo sapiens, UniProt P16591)
Tyrosine-protein kinase Fer, sequence (P16591 whole entry): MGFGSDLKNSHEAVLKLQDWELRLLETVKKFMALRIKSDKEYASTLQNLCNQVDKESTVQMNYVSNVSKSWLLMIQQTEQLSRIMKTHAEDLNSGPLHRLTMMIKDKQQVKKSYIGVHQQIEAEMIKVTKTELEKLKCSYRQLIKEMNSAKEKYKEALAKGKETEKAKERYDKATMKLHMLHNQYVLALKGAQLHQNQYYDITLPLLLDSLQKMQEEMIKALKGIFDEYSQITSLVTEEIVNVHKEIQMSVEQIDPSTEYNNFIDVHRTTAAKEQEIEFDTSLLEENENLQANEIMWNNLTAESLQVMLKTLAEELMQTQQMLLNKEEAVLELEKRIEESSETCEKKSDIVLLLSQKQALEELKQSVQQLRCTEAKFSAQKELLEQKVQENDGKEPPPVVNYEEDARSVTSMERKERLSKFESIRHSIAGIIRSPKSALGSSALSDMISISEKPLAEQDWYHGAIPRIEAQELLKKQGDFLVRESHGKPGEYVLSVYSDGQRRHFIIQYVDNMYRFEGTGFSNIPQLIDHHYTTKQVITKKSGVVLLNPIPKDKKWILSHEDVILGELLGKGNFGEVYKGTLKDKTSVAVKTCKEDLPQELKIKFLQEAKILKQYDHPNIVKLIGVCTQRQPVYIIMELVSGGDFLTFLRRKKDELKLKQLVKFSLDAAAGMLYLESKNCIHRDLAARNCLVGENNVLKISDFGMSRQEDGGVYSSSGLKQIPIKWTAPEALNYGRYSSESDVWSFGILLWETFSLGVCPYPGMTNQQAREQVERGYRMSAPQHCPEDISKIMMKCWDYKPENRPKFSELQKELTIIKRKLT

[3] = biological target: Tyrosine-protein kinase Lyn (Homo sapiens, UniProt P07948)
Tyrosine-protein kinase Lyn, sequence (P07948 whole entry): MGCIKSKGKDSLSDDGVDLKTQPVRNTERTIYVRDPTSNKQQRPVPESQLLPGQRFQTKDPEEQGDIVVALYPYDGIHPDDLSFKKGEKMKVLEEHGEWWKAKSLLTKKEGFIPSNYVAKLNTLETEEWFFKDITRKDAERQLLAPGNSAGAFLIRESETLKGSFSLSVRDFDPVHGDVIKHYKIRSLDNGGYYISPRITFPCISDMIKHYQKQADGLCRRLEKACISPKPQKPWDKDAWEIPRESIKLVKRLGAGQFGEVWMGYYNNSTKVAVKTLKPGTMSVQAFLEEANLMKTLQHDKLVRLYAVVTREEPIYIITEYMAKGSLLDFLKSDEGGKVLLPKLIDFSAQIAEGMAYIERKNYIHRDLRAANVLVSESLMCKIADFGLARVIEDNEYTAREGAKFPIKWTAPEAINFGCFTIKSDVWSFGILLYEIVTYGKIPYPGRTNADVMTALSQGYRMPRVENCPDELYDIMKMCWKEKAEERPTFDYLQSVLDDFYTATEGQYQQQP

[4] = biological target: T1, Mitogen-activated protein kinase kinase kinase 6 (Homo sapiens, UniProt O95382)
T1 sequence (O95382 whole entry): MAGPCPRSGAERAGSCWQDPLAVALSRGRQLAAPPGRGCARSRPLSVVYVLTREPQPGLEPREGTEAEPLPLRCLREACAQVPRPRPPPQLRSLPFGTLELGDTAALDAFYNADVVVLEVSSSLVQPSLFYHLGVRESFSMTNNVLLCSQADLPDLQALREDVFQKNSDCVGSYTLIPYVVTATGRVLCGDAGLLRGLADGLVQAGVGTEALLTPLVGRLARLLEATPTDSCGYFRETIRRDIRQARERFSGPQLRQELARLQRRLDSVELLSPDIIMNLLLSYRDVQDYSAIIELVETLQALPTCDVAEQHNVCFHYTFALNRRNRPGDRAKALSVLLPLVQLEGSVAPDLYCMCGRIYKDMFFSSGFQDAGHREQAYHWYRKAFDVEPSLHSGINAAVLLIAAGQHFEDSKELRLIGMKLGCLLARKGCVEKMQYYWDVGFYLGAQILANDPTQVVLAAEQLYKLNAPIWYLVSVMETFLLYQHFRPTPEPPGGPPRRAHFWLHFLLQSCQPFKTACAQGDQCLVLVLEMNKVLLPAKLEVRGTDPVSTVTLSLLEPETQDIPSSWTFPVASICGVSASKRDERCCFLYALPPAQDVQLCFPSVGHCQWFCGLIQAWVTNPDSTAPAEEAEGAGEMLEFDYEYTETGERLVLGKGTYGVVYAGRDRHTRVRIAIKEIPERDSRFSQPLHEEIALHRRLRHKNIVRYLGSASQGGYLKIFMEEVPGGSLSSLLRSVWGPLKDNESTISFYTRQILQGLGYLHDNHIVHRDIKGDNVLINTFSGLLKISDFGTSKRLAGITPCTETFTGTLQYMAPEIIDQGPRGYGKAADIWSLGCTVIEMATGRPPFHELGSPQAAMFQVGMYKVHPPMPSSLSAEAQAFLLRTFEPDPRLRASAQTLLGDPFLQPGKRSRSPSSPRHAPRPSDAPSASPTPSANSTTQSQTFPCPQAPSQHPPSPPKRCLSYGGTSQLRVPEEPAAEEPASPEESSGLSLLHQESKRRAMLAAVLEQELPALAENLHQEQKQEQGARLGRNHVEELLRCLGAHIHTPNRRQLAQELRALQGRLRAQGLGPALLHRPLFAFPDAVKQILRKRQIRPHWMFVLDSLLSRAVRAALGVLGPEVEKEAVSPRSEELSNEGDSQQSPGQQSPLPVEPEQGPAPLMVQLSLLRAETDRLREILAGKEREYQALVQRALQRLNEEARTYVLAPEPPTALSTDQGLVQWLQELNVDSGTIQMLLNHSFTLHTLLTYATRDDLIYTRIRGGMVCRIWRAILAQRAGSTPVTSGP

[5] = biological target: Mitogen-activated protein kinase 9 (Homo sapiens, UniProt P45984)
Mitogen-activated protein kinase 9, sequence (P45984 whole entry): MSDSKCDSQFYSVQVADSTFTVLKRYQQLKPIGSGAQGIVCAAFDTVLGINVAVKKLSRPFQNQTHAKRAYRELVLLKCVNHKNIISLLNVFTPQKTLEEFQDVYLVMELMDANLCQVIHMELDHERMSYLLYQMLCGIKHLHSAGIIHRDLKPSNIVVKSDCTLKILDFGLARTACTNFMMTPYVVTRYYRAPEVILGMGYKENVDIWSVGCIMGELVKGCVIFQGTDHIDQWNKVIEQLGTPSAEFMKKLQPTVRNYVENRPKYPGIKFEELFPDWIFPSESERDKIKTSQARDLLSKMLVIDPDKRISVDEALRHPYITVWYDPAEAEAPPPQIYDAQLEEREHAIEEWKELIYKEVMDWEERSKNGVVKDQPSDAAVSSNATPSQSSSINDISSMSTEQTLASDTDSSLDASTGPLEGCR

[6] = biological target: T2, DNA replication licensing factor MCM4 (Homo sapiens, UniProt P33991)
T2 sequence (P33991 whole entry): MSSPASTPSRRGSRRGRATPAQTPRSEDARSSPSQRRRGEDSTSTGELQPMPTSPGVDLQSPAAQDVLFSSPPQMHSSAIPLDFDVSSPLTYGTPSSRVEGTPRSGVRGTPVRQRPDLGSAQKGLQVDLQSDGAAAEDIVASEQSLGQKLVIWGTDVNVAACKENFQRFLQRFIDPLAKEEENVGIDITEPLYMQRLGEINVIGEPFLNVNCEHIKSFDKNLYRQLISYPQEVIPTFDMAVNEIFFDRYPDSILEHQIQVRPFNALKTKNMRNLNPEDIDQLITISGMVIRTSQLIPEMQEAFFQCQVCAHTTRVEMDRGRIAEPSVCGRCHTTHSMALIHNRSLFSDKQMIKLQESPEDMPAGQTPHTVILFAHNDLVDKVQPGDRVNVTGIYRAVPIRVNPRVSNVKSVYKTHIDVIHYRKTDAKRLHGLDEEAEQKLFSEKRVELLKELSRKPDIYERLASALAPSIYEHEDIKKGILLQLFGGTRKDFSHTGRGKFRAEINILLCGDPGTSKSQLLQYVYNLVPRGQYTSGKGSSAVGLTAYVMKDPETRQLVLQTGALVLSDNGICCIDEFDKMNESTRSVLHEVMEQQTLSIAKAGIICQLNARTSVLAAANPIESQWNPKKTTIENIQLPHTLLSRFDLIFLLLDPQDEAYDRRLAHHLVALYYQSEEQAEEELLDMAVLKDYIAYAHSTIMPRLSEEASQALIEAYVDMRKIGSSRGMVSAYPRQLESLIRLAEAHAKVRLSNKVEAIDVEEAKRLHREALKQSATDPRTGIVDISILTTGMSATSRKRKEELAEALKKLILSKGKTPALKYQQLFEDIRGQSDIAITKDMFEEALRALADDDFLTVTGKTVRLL

[7] = biological target: Ribosomal protein S6 kinase alpha-4 (Homo sapiens, UniProt O75676)
Ribosomal protein S6 kinase alpha-4, sequence (O75676 whole entry): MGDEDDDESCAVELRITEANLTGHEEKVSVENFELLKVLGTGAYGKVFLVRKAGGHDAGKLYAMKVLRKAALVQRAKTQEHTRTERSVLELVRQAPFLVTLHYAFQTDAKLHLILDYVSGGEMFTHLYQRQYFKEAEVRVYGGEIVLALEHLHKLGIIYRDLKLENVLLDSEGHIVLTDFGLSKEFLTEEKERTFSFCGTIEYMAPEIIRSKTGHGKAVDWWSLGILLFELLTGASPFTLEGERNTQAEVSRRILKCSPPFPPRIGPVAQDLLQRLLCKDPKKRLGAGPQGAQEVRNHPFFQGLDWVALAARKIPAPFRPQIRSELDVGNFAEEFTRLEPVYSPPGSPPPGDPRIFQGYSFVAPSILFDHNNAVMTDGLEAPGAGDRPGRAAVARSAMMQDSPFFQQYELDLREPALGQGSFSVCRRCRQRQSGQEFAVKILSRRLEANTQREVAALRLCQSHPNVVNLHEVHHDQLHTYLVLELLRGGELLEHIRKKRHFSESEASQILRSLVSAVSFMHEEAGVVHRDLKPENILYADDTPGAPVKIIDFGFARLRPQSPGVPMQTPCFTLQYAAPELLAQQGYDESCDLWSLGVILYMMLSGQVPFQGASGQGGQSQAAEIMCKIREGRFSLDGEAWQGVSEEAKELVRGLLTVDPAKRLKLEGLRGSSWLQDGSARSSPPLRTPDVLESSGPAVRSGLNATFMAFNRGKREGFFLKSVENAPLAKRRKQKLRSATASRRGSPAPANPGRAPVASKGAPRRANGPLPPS
Note: in the data inactive means no Kd found up to 30 µM.

Ephrin type-A receptor 2, sequence (P29317 whole entry): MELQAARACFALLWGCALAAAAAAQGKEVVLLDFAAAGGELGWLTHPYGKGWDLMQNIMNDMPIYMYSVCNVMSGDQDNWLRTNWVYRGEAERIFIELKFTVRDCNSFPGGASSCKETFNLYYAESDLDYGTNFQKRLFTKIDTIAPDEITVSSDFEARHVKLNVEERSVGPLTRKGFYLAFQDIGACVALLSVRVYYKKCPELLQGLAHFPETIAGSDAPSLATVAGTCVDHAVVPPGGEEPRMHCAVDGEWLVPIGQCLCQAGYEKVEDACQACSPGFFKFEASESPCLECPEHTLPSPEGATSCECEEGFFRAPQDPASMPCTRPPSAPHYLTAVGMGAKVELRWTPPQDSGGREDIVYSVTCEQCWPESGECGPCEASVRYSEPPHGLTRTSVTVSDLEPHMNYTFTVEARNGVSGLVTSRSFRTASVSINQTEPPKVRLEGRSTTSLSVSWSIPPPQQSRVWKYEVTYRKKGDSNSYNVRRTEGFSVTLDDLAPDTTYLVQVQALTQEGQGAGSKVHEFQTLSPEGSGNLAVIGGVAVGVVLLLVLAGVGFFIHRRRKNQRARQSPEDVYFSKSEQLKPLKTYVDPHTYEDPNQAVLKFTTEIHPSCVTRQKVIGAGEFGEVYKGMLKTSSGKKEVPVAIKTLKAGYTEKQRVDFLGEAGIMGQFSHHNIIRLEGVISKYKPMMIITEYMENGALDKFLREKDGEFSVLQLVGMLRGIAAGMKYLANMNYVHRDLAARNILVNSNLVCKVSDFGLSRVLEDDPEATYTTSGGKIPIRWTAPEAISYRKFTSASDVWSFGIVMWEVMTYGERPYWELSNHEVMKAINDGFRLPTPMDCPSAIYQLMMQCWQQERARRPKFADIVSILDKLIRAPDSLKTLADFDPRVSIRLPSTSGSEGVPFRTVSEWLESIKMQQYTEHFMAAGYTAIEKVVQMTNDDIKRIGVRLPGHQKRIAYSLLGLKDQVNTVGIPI

Nc1ncnc2c1c(-c1cccc(OCc3ccccc3)c1)cn2[C@H]1C[C@@H](CN2CCC2)C1 [AEW-541]
Kd [1]: > 30 µM (inactive) | Kd (Ephrin type-A receptor 2): > 30 µM (inactive) | Kd [2]: > 30 µM (inactive) | Kd [3]: 2.44 µM (active) | Kd [4]: > 30 µM (inactive) | Kd [5]: > 30 µM (inactive) | Kd [6]: > 30 µM (inactive) | Kd [7]: > 30 µM (inactive)

CN1CCN(CCOc2cc(OC3CCOCC3)c3c(Nc4c(Cl)ccc5c4OCO5)ncnc3c2)CC1 [SARACATINIB]
Kd [1]: > 30 µM (inactive) | Kd (Ephrin type-A receptor 2): 0.729 µM (active) | Kd [2]: > 30 µM (inactive) | Kd [3]: 0.113 µM (active) | Kd [4]: > 30 µM (inactive) | Kd [5]: > 30 µM (inactive) | Kd [6]: > 30 µM (inactive) | Kd [7]: > 30 µM (inactive)

C=CC(=O)N1CCC[C@H](n2c(=O)n(-c3ccc(Oc4ccccc4)cc3)c3c(N)ncnc32)C1
Kd [1]: > 30 µM (inactive) | Kd (Ephrin type-A receptor 2): > 30 µM (inactive) | Kd [2]: > 30 µM (inactive) | Kd [3]: 0.006 µM | Kd [4]: > 30 µM (inactive) | Kd [5]: > 30 µM (inactive) | Kd [6]: > 30 µM (inactive) | Kd [7]: > 30 µM (inactive)

COc1cc2c(Nc3ccc(Cl)c(Cl)c3F)ncnc2cc1OC[C@@H]1C[C@@H]2CN(C)C[C@@H]2C1 [TESEVATINIB]
Kd [1]: > 30 µM (inactive) | Kd (Ephrin type-A receptor 2): 0.501 µM (active) | Kd [2]: > 30 µM (inactive) | Kd [3]: 1.13 µM (active) | Kd [4]: > 30 µM (inactive) | Kd [5]: > 30 µM (inactive) | Kd [6]: > 30 µM (inactive) | Kd [7]: > 30 µM (inactive)

CO[C@H]1C[C@@H]2CC[C@@H](C)[C@@](O)(O2)C(=O)C(=O)N2CCCC[C@H]2C(=O)O[C@H]([C@H](C)C[C@@H]2CC[C@@H](OC(=O)C(C)(CO)CO)[C@H](OC)C2)CC(=O)[C@H](C)/C=C(\C)[C@@H](O)[C@@H](OC)C(=O)[C@H](C)C[C@H](C)/C=C/C=C/C=C/1C [TEMSIROLIMUS]
Kd [1]: > 30 µM (inactive) | Kd (Ephrin type-A receptor 2): > 30 µM (inactive) | Kd [2]: > 30 µM (inactive) | Kd [3]: > 30 µM (inactive) | Kd [4]: > 30 µM (inactive) | Kd [5]: > 30 µM (inactive) | Kd [6]: > 30 µM (inactive) | Kd [7]: > 30 µM (inactive)

Cn1cnc2c(F)c(Nc3ccc(Br)cc3F)c(C(=O)NOCCO)cc21 [BINIMETINIB]
Kd [1]: > 30 µM (inactive) | Kd (Ephrin type-A receptor 2): > 30 µM (inactive) | Kd [2]: > 30 µM (inactive) | Kd [3]: > 30 µM (inactive) | Kd [4]: > 30 µM (inactive) | Kd [5]: > 30 µM (inactive) | Kd [6]: > 30 µM (inactive) | Kd [7]: > 30 µM (inactive)

CCOc1cc2ncc(C#N)c(Nc3ccc(F)c(Cl)c3)c2cc1NC(=O)/C=C/CN(C)C [PELITINIB]
Kd [1]: > 30 µM (inactive) | Kd (Ephrin type-A receptor 2): > 30 µM (inactive) | Kd [2]: > 30 µM (inactive) | Kd [3]: > 30 µM (inactive) | Kd [4]: > 30 µM (inactive) | Kd [5]: > 30 µM (inactive) | Kd [6]: > 30 µM (inactive) | Kd [7]: > 30 µM (inactive)

COc1c(OCCCN2CCOCC2)ccc2c1N=C(NC(=O)c1cnc(N)nc1)N1CCN=C21 [COPANLISIB]
Kd [1]: > 30 µM (inactive) | Kd (Ephrin type-A receptor 2): > 30 µM (inactive) | Kd [2]: > 30 µM (inactive) | Kd [3]: > 30 µM (inactive) | Kd [4]: > 30 µM (inactive) | Kd [5]: > 30 µM (inactive) | Kd [6]: > 30 µM (inactive) | Kd [7]: > 30 µM (inactive)

O=c1[nH]ccc2cc(OC3CCNCC3)ccc12 [SAR-407899 FREE BASE]
Kd [1]: > 30 µM (inactive) | Kd (Ephrin type-A receptor 2): > 30 µM (inactive) | Kd [2]: > 30 µM (inactive) | Kd [3]: > 30 µM (inactive) | Kd [4]: > 30 µM (inactive) | Kd [5]: > 30 µM (inactive) | Kd [6]: > 30 µM (inactive) | Kd [7]: > 30 µM (inactive)

CNC(=O)c1cccc2cc(Oc3ccnc4cc(OCC5(N)CC5)c(OC)cc34)ccc12 [LUCITANIB]
Kd [1]: > 30 µM (inactive) | Kd (Ephrin type-A receptor 2): > 30 µM (inactive) | Kd [2]: > 30 µM (inactive) | Kd [3]: 2.76 µM (active) | Kd [4]: > 30 µM (inactive) | Kd [5]: > 30 µM (inactive) | Kd [6]: > 30 µM (inactive) | Kd [7]: > 30 µM (inactive)

C=CC(=O)Nc1cc2c(Nc3ccc(F)c(Cl)c3)ncnc2cc1C#CC(C)(C)N1CCN(C)CC1 [AV-412 FREE BASE]
Kd [1]: > 30 µM (inactive) | Kd (Ephrin type-A receptor 2): > 30 µM (inactive) | Kd [2]: > 30 µM (inactive) | Kd [3]: > 30 µM (inactive) | Kd [4]: > 30 µM (inactive) | Kd [5]: > 30 µM (inactive) | Kd [6]: > 30 µM (inactive) | Kd [7]: > 30 µM (inactive)
